Test in all cases: DTP human tumour cell line panel, 48 h
Assay [1] deals with HL-60(TB) leukemia.
For assay [2], the system named is HOP-62 NSCLC.
For assay [3], the system named is HT29 colon.
In assay [4] the test system is KM12 colon.
The subject of assay [5] is MDA-MB-231 breast.
In assay [6] the test system is NCI-H226 lung.
Assay [7] relates to SF-268 CNS.
The subject of assay [8] is SF-295 CNS.

Data on ten compounds can be found in PubChem BioAssay (NCI).

The term GI50 denotes the concentration giving 50% growth inhibition. Usually TGI stands for the concentration at which net growth stops. Low readings indicate greater sensitivity of the cells, high ones lower sensitivity of the cells.

Several values for one entry are separate records, joined by “and”; a condition that tells them apart may be missing. Identical values can stand only once.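 48-hour exposure; five concentrations; linearly interpolated endpoints. GI50 marks 50% less growth. The concentration for full growth arrest is given as TGI.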 A value given as a limit tells only on which side of the number the result lay.

For `COc1ccc(-c2cnnn2-c2nonc2-n2cccc2)cc1`, the GI50 in assay [1] was 0.177 µM; in assay [2], 0.34 µM; in assay [3], 0.128 µM; in assay [4] it was 0.16 µM; in assay [5], 1.21 µM; in assay [6] it was 0.705 µM. Moreover, the GI50 in assay [7] is 0.52 µM; in assay [8], 0.246 µM. Further, the concentration for total growth inhibition (TGI) is 0.547 µM in assay [1]; more than 83.1 µM in assay [2]; 2.8 µM in assay [3]; 8.53 µM in assay [4]; more than 25 µM in assay [5]; 33.3 µM in assay [6]. For the same compound, the TGI in assay [7] was found to be 27.6 µM; in assay [8], 6.21 µM.
As for `CN(C)CCNCCN`, the TGI in assay [1], in assay [2], in assay [3], in assay [4], in assay [5] and in assay [6] was more than 100 µM throughout. The TGI in assay [7] and in assay [8] was more than 100 µM each time.
As to `CC(C)CC(C/C=C1/CC(CO)(COC(=O)C(C)(C)C)OC1=O)CC(C)C` (stereo not drawn), the GI50 was 0.154 µM and 0.46 µM in assay [1]; 10.8 µM and 1.92 µM in assay [2]; 10.3 µM and 2.55 µM in assay [3]; 13.7 µM and 14.8 µM in assay [4]; 3.34 µM and 14.1 µM in assay [6]; 12.2 µM and 1.7 µM in assay [8]. In addition, the TGI was 16.9 µM and 16.7 µM in assay [1]; 31.7 µM and 20.1 µM in assay [2]; 23.2 µM and 18.6 µM in assay [3]; 29.3 µM and 33.2 µM in assay [4]; 17.4 µM in assay [5]; 17.6 µM and 28.5 µM in assay [6]. Also, the TGI is 26.4 µM and 25.4 µM in assay [7]; 36.7 µM and 12.7 µM in assay [8].
Consider `O=C1Nc2ccccc2/C1=C1\CCc2cc(O)ccc21`, for which the GI50 was 6.65 µM in assay [1]; 9.95 µM in assay [2]; 9.77 µM in assay [3]; 1.01 µM in assay [4]; 7.22 µM in assay [5]; 12.4 µM in assay [6]. For the same compound, the GI50 in assay [7] was 10.1 µM; in assay [8] it was 11.3 µM. For the same compound, the TGI was more than 21.5 µM in assay [1]; more than 25 µM in assay [2]; more than 25 µM in assay [3]; more than 25 µM in assay [4]; more than 25 µM in assay [5]; more than 25 µM in assay [6]. Moreover, the TGI in assay [7] and in assay [8] was more than 25 µM each time.
`O=C(Nc1cc(Cl)ccc1O)c1ccc(Nc2ccnc(C(F)(F)F)c2)cc1`: the GI50 in assay [1] was 1.25 µM; in assay [2], 3.23 µM; in assay [3], 6.35 µM; in assay [4] it was 3.19 µM; in assay [5], 2.11 µM; in assay [6] it was 2.02 µM. The GI50 in assay [7] was 3.99 µM; in assay [8], 2.2 µM. The TGI in assay [1] is 4.42 µM; in assay [2] it was 23.7 µM; in assay [3] it was more than 100 µM; in assay [4], 18.8 µM; in assay [5], 6.35 µM; in assay [6] it was 7.33 µM. The TGI in assay [7] was more than 100 µM; in assay [8], 7.03 µM.
For `OC(c1cc(-c2ccc(C(F)(F)F)cc2)nc(C(F)(F)F)c1)C1CCCCN1` (stereo not drawn), the GI50 in assay [1] was 1.43 µM; in assay [2], 1.75 µM and 2.13 µM; in assay [3], 1.65 µM; in assay [5], 1.72 µM and 2.42 µM; in assay [6], 1.73 µM and 2.56 µM; in assay [7] it was 1.85 µM and 3.76 µM. The GI50 in assay [8] was 1.38 µM and 2.84 µM. The TGI in assay [1] was 3.67 µM and 4.11 µM; in assay [2], 3.18 µM and 4.75 µM; in assay [3] it was 3.22 µM and 3.87 µM; in assay [4] it was 3.13 µM and 3.35 µM; in assay [5], 3.16 µM and 5.65 µM; in assay [6], 3.21 µM and 6.83 µM. The TGI in assay [7] is 3.46 µM and 13.1 µM; in assay [8], 2.7 µM and 6.54 µM.
`CCCCCCCCCCNC(=O)CI`: the GI50 in assay [1] was 1.32 µM; in assay [2], 1.95 µM; in assay [3], 1.98 µM; in assay [4], 2.13 µM; in assay [5], 1.66 µM; in assay [6], 2.19 µM. The GI50 was 1.86 µM in assay [7] and 4.58 µM in assay [8]. In addition, the TGI in assay [1] worked out at 3.12 µM; in assay [2], 4.04 µM; in assay [3], 3.76 µM; in assay [4], 4.29 µM; in assay [5] it was 3.29 µM; in assay [6], 8.84 µM. For the same compound, the values for the TGI in assay [7] and in assay [8] were 3.65 µM and 13.2 µM, respectively.
Turning to `N[C@H](CCC(=O)N[C@@H](Cc1c[nH]c2ccccc12)C(=O)O)C(=O)O`, the GI50 in assay [1], in assay [2], in assay [3], in assay [4], in assay [5] and in assay [6] was more than 100 µM in each case. Further, the GI50 in assay [7] and in assay [8] was more than 100 µM in each case. In addition, the TGI in assay [1], in assay [2], in assay [3], in assay [4], in assay [5] and in assay [6] was more than 100 µM each time. Moreover, the concentration for total growth inhibition (TGI) in assay [7] and in assay [8] was more than 100 µM throughout.
Consider `COc1ccc(/C(C)=C(\c2ccc(OCCN3CCCCCC3)cc2)c2ccc(OC(=O)C3CCCCC3)cc2)cc1`, for which the GI50 in assay [1] was 0.707 µM; in assay [2], 1.89 µM; in assay [3], 0.46 µM; in assay [4], 0.854 µM; in assay [5], 1.05 µM; in assay [6], 2.02 µM. Also, the GI50 in assay [7] is 1.16 µM; in assay [8], 0.484 µM. The TGI in assay [1] amounted to 2.85 µM; in assay [2] it was 4.21 µM; in assay [3], 2.14 µM; in assay [4], 3.27 µM; in assay [5], 3 µM; in assay [6], 4.77 µM. In addition, the figures for the TGI in assay [7] and in assay [8] were 4.33 µM and 1.8 µM, respectively.
For `COc1ccc(-c2ccc3c(N4CCOC[C@@H]4C)nc(N4CCOC[C@@H]4C)nc3n2)cc1CO`, the TGI was > 3.76 µM and 20.7 µM in assay [1]; 1.65 µM and 0.527 µM in assay [2]; > 10 µM and 5.9 µM in assay [3]; more than 100 µM in assay [4]; 13.8 µM in assay [5]; 0.186 µM and 0.312 µM in assay [6]. In addition, the TGI in assay [7] is > 3.31 µM and 51.1 µM; in assay [8], 0.0462 µM and 0.18 µM. For the same compound, the GI50 in assay [2] was 0.00514 µM and 0.028 µM; in assay [3], 0.00674 µM and 0.0385 µM; in assay [4], 0.00626 µM and 0.0449 µM; in assay [5] it was 0.00595 µM and 0.0364 µM; in assay [6], 0.004 µM and 0.0139 µM; in assay [7], 0.00537 µM and 0.0359 µM. Also, in assay [8], the GI50 is 0.00412 µM and < 0.011 µM.
